Consider 21 compounds from patent US20110034507A1, “FARNESOID X RECEPTOR AGONISTS” (SMITHKLINE BEECHAM CORPORATION, priority 2007, published 2011).

Each structure is given as a SMILES string.

In this experiment the target is T1, Human FXRα Ligand Binding Domain (Homo sapiens, UniProt Q96RI1).
T1 construct: polyhistidine (pRSET-A vector leader) (N); made in house; host or cells: E. coli BL21 (DE3), pRSET-A vector
T1 sequence (Q96RI1 237-472 isoform Q96RI1-2): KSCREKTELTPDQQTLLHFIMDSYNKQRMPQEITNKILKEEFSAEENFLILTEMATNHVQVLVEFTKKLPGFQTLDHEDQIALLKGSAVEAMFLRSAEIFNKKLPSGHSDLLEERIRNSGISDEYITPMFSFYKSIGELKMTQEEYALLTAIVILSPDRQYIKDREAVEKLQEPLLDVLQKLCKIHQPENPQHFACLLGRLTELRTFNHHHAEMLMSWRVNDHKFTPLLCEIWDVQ
Briefly: FXR Cofactor Binding Assay (ligand mediated SRC-1 cofactor peptide interaction, time resolved fluorescence). The experiment is classed as biochemical. Particulars: FXRα LBD / SRC-1 (LCD2, 676-700) peptide, TRF; read-out: Activity (pEC50) (converted). The text has this: Determination of a ligand mediated cofactor peptide interaction to quantify ligand binding to the nuclear receptor Farnesoid X Receptor (FXR). The method measures the ability of putative ligands to modulate the interaction between the purified bacterial expressed FXRα ligand binding domain (LBD) and a synthetic biotinylated peptide based on residues 676-700 of steroid receptor coactivator-1 (SRC-1) (LXXLL-containing domain-2 where L is the amino acid leucine and X indicates any other amino acid (LCD2), 676-700). The sequence of the SRC-1 peptide used is as published in Iannone, M. A., et al., 2001 Cytometry 44:326-337 where the N-terminus was biotinylated (B) and the C-terminus was amidated. Detection of the associated complex was measured by time resolved fluorescence (TRF). The purified LBD of FXR was labeled with biotin, then mixed with stoichiometric amounts of allophycocyanin (APC) labeled streptavidin (Molecular Probes). The biotinylated peptide was then mixed with a ½ stoichiometric amount of europium labeled streptavidin (Wallac Inc). Each was then blocked with a 5 fold excess of biotin and allowed to equilibrate for 15 min. Equimolar amounts of receptor and peptide were mixed together and were allowed to equilibrate for at least 30 min prior to the addition to either a variable or constant concentrations of the sample for which the affinity is to be determined. After equilibration, the time-resolved fluorescent signal was quantitated using a fluorescent plate reader. The affinity of the test compound was estimated from a plot of fluorescence versus concentration of test compound added.
Ligands that promote the complex formation induce a concentration-dependent increase in time-resolved fluorescent signal.
Human FXRα Ligand Binding Domain (FXRα LBD) was expressed in E. coli strain BL21 (DE3) as an amino-terminal polyhistidine tagged fusion protein. Expression was under the control of an isopropyl-β-D-thiogalactopyranoside (IPTG) inducible T7 promoter. DNA encoding this recombinant protein is subcloned into the pRSET-A expression vector (Invitrogen). The coding sequence of Human FXRα LBD was derived from Genbank accession number U 68233 (amino acids 237 to 472).
Ten-liter fermentation batches were grown in Rich PO4 media with 0.1 mg/mL Ampicillin at 25° C. for 12 hours, cooled to 9° C. and held at that temperature for 36 hours to a density of OD600=14. At this cell density, 0.25 mM IPTG is added and induction proceeded for 24 hours at 9° C., to a final OD600=16. Cells are harvested by centrifugation (20 minutes, 3500×gravity, 4° C.), and concentrated cell slurries were stored in phosphate buffered saline (PBS) at […].
Routinely, 30-40 g cell paste (equivalent to 2-3 liters of the fermentation batch) was resuspended in 200-250 mL Tris buffered saline (TBS), pH 7.2 (25 mM Tris-hydroxymethylamino methane (Tris), 150 mM sodium chloride). Cells were lysed by passing 3 times through a French Press and cell debris was removed by centrifugation (30 minutes, 20,000×gravity, 4° C.). The cleared supernatant was filtered through course pre-filters, and TBS, pH 7.2, 500 mM imidazole was added to obtain a final imidazole concentration of 50 mM. This lysate was loaded onto a column (6×8 cm) packed with Sepharose [Ni^++ charged] Chelation resin (Pharmacia) and pre-equilibrated with TBS pH 7.2/50 mM imidazole. After washing to baseline absorbance with equilibration buffer, the column was washed with one column volume of TBS pH 7.2 containing 90 mM imidazole. FXRα LBD was eluted directly with 365 mM imidazole. Column fractions were pooled and dialyzed against TBS, pH 7.2, containing 0.5 mM EDTA and 5 mM DTT. The dialyzed protein sample was concentrated using Centri-prep 10 K (Amicon) and subjected to size exclusion, using a column (3×90 cm) packed with Sepharose S-75 resin (Pharmacia) pre-equilibrated with TBS, pH 7.2, containing 0.5 mM ethylene diamine tetraacetic acid (EDTA) and 5 mM dithiothreitol (DTT).
`Cc1cccc(C)c1OCc1noc(C(C)C)c1COc1ccc2c(ccn2Cc2cccc(C(=O)O)c2)c1` [Example 1, 3-{[5-({[3-{[(2,6-dimethylphenyl)oxy]methyl}-5-(1-methylethyl)-4-isoxazolyl]methyl}oxy)-1H-indol-1-yl]methyl}benzoic acid]: the EC50 is 102 to 1000 nM.
In the case of `CC(C)c1onc(COc2c(F)cc(F)cc2F)c1COc1ccc2c(ccn2Cc2cccc(C(=O)O)c2)c1` [Example 2, 3-[(5-{[(5-(1-methylethyl)-3-{[(2,4,6-trifluorophenyl)oxy]methyl}-4-isoxazolyl)methyl]oxy}-1H-indol-1-yl)methyl]benzoic acid] it was 1020 to 10000 nM; in that of `CC(C)c1onc(COc2c(Cl)cc(Cl)cc2Cl)c1COc1ccc2c(ccn2Cc2cccc(C(=O)O)c2)c1` [Example 3, 3-[(5-{[(5-(1-methylethyl)-3-{[(2,4,6-trichlorophenyl)oxy]methyl}-4-isoxazolyl)methyl]oxy}-1H-indol-1-yl)methyl]benzoic acid], 102 to 1000 nM.
For `CC(C)c1onc(CNc2c(Cl)cccc2Cl)c1COc1ccc2c(ccn2Cc2cccc(C(=O)O)c2)c1` [Example 4, 3-{[5-({[3-{[(2,6-dichlorophenyl)amino]methyl}-5-(1-methylethyl)-4-isoxazolyl]methyl}oxy)-1H-indol-1-yl]methyl}benzoic acid] the value was 1020 to 10000 nM.
In the case of `CC(C)c1onc(COc2c(Br)cccc2Br)c1COc1ccc2c(ccn2Cc2cccc(C(=O)O)c2)c1` [Example 5, 3-{[5-({[3-{[(2,6-dibromophenyl)oxy]methyl}-5-(1-methylethyl)-4-isoxazolyl]methyl}oxy)-1H-indol-1-yl]methyl}benzoic acid] it was 102 to 1000 nM.
As for `CC(C)c1onc(CSc2nccs2)c1COc1ccc2c(ccn2Cc2cccc(C(=O)O)c2)c1` [Example 6, 3-({5-[({5-(1-methylethyl)-3-[(1,3-thiazol-2-ylthio)methyl]-4-isoxazolyl}methyl)oxy]-1H-indol-1-yl}methyl)benzoic acid], the EC50 is 1020 to 10000 nM.
`CC(C)c1onc(-c2ccccc2OC(F)(F)F)c1COc1ccc2c(ccn2Cc2cccc(C(=O)O)c2)c1` [Example 7, 3-[(5-{[(5-(1-Methylethyl)-3-{2-[(trifluoromethyl)oxy]phenyl}-4-isoxazolyl)methyl]oxy}-1H-indol-1-yl)methyl]benzoic acid]: the EC50 was 102 to 1000 nM.
Consider `CC(C)c1onc(-c2c(Cl)cncc2Cl)c1COc1ccc2ccn(Cc3cccc(C(=O)O)c3)c2c1` [Example 8, 3-{[6-({[3-(3,5-dichloro-4-pyridinyl)-5-(1-methylethyl)-4-isoxazolyl]methyl}oxy)-1H-indol-1-yl]methyl}benzoic acid], for which the EC50 is 102 to 1000 nM.
For `CC(C)c1onc(-c2c(Cl)cccc2Cl)c1COc1ccc2cc(-c3ccc(C(=O)O)cc3)sc2c1` [Example 9, 4-[6-({[3-(2,6-Dichlorophenyl)-5-(1-methylethyl)-4-isoxazolyl]methyl}oxy)-1-benzothien-2-yl]benzoic acid] the value was 102 to 1000 nM; for `CC(C)c1onc(-c2c(Cl)cccc2Cl)c1COc1ccc2c(ccn2C(=O)c2cccc(C(=O)O)c2)c1` [Example 10, 3-{[5-({[3-(2,6-Dichlorophenyl)-5-(1-methylethyl)-4-isoxazoly]methyl}oxy)-1H-indol-1-yl]carbonyl}benzoic acid], 102 to 1000 nM; for `CC(C)c1onc(-c2c(Cl)cccc2Cl)c1COc1ccc2nc(-c3cccc(C(=O)O)c3)sc2c1` [Example 11, 3-[6-({[3-(2,6-Dichlorophenyl)-5-(1-methylethyl)-4-isoxazolyl]methyl}oxy)-1,3-benzothiazol-2-yl]benzoic acid], 102 to 1000 nM.
On to `CC(C)c1onc(-c2c(Cl)cccc2Cl)c1COc1ccc2c(ccn2Cc2cccc(-c3nnn[nH]3)c2)c1` [Example 12, 5-({[3-(2,6-Dichlorophenyl)-5-(1-methylethyl)-4-isoxazolyl]methyl}oxy)-1-{[3-(1H-tetrazol-5-yl)phenyl]methyl}-1H-indole], for which the EC50 was 102 to 1000 nM.
For `CC(C)c1onc(-c2c(Cl)cccc2Cl)c1COc1ccc2c(ccn2Cc2ccc(C(=O)O)cc2)c1` [Example 13, 4-{[5-({[3-(2,6-Dichlorophenyl)-5-(1-methylethyl)-4-isoxazolyl]methyl}oxy)-1H-indol-1-yl]methyl}benzoic acid] the value was 102 to 1000 nM; for `CC(C)c1onc(COc2c(Cl)cc(F)cc2Cl)c1COc1ccc2c(ccn2Cc2cccc(C(=O)O)c2)c1` [Example 14, 3-{[5-({[3-{[(2,6-Dichloro-4-fluorophenyl)oxy]methyl}-5-(1-methylethyl)-4-isoxazolyl]methyl}oxy)-1H-indol-1-yl]methyl}benzoic acid], 102 to 1000 nM.
As for `CC(C)c1onc(COc2c(Cl)cccc2Cl)c1COc1ccc2c(ccn2Cc2cccc(C(=O)O)c2)c1` [Example 15, 3-{[5-({[3-{[(2,6-Dichlorophenyl)oxy]methyl}-5-(1-methylethyl)-4-isoxazolyl]methyl}oxy)-1H-indol-1-yl]methyl}benzoic acid], the EC50 is 102 to 1000 nM.
For `CC(C)c1onc(-c2c(Cl)cccc2Cl)c1COc1ccc2sc(-c3ccc(C(=O)O)cc3)cc2c1` [Example 16, 4-[5-({[3-(2,6-Dichlorophenyl)-5-(1-methylethyl)-4-isoxazolyl]methyl}oxy)-1-benzothien-2-yl]benzoic acid], the EC50 is 102 to 1000 nM.
For `CC(C)c1onc(-c2c(Cl)cccc2Cl)c1COc1ccc2cc(-c3cncc(C(=O)O)c3)ccc2c1` [Example 17, 5-[6-({[3-(2,6-Dichlorophenyl)-5-(1-methylethyl)-4-isoxazolyl]methyl}oxy)-2-naphthalenyl]-3-pyridinecarboxylic acid] the value was 102 to 1000 nM.
With `CC(C)c1onc(-c2c(Cl)cccc2Cl)c1COc1ccc2cc(-c3cccc(C(=O)O)n3)ccc2c1` [Example 18, 6-[6-({[3-(2,6-Dichlorophenyl)-5-(1-methylethyl)-4-isoxazolyl]methyl}oxy)-2-naphthalenyl]-2-pyridinecarboxylic acid], the EC50 was 102 to 1000 nM.
Take `CC(C)c1onc(-c2c(Cl)cccc2Cl)c1COc1ccc2cc(-c3ccc(C(=O)O)nc3)ccc2c1` [Example 19, 5-[6-({[3-(2,6-Dichlorophenyl)-5-(1-methylethyl)-4-isoxazolyl]methyl}oxy)-2-naphthalenyl]-2-pyridinecarboxylic acid]: the EC50 was 102 to 1000 nM.
In the case of `CC(C)c1onc(-c2c(Cl)cccc2Cl)c1COc1ccc2cc(-c3ccnc(C(=O)O)c3)ccc2c1` [Example 20, 4-[6-({[3-(2,6-Dichlorophenyl)-5-(1-methylethyl)-4-isoxazolyl]methyl}oxy)-2-naphthalenyl]-2-pyridinecarboxylic acid] it was 102 to 1000 nM; in that of `CC(C)c1onc(-c2c(Cl)cccc2Cl)c1COc1ccc2cc(-c3cc(C(=O)O)ccn3)ccc2c1` [Example 21, 2-[6-({[3-(2,6-Dichlorophenyl)-5-(1-methylethyl)-4-isoxazolyl]methyl}oxy)-2-naphthalenyl]-4-pyridinecarboxylic acid], 102 to 1000 nM.
